Read-outs that look alike come from different tables or passages of the source.
What was measured:
L. major = test system: L. major; parameters: method as in Domínguez-Asenjo et al., 2021; conditions: ref Domínguez-Asenjo et al., 2021; cited from earlier work
Leishmania = test system: Leishmania; parameters: method as in Domínguez-Asenjo et al., 2021; conditions: oral administration, spleen and liver; ref Domínguez-Asenjo et al., 2021; cited from earlier work
[1] = Cytotoxicity, alamarBlue, 72 h; format: cell-based; conditions: human, HepG2 cells; 72 h, alamarBlue; read-out: HepG2 cells CC50
Protocol: (§1) For cytotoxicity tests, several mammalian cell lines were used. […] Primary cell cultures were also used to evaluate cytotoxicity. […] BMDM cells were differentiated for one week with 30 % […] from L929 cell line.
(§2) The in vitro cytotoxicity of the selected nitrofurans was evaluated in HepG2, RAW 264.7 cells, splenocytes and BMDM. In each well of a 96-well microtitre plate, 100 μL containing 10,000 HepG2 or RAW 264.7 cells were incubated for 24h at 37 °C and 5 % CO2 to allow the cells to settle. For primary cells, 100 μL containing 100,000 BMDM or 1,000,000 splenocytes were added to each well. Subsequently, […] of one-half serial dilutions of each compound diluted in DMEM (for HepG2 cells), RPMI medium (for RAW cells), splenocyte medium (for splenocytes) or BMDM medium supplemented with 10 % GM-CSF (for BMDM), were added to each well. The cytotoxic effect of the compounds was measured after 72 h of incubation at 37 °C and 5 % CO2. For this purpose, a 10 % (v/v) of the alamarBlue™ cell viability reagent (Invitrogen, Fisher Scientific International Inc., Pittsburgh, PA, USA) was added, and the reaction was incubated for 4 h at 37 °C and 5 % CO2. Fluorescence was measured using a Varioskan Lux spectrophotometer (ThermoFisher Scientific, Waltham, MA, USA). Positive controls consisting of 0.1 % (v/v) H2O2, and negative controls, consisting of 0.1 % (v/v) DMSO, were also included on each plate.
(§3) All experiments were carried out in triplicate and included at least three technical replicates. […] The SI was calculated from the CC50/EC50 ratio.

[2] = test system: L. donovani-iRFP axenic amastigotes; test: ROS production by axenic amastigotes (DCFH-DA, flow cytometry); format: cell-based, Leishmania donovani; conditions: compound at its axenic EC50, 3 h
Protocol: To assess ROS production in L. donovani-iRFP, axenic amastigotes were treated with nitrofurans at the concentration equivalent to their EC50 calculated in viability experiments. As positive control of oxidative stress induction, cultures were treated with 0.01 % H2O2 (v/v), whereas 0.03 % (v/v) DMSO was added as negative control. After an incubation period of 3 h at 37 °C, cells were harvested by centrifugation at 3500 rcf for 10 min, washed in phosphate-buffered saline (PBS), centrifuged again and resuspended in PBS. Cells were labeled with 5 μM 2′,7′-dichlorofluorescein diacetate (DCFH-DA, MedChemExpress) for 30 min at 37 °C. Then, cells were centrifuged at 3500 rcf for 5 min, washed, and resuspended in PBS. The cell suspension was stored at 4 °C until the analysis by flow cytometry, which was performed in a CytoFLEX SRT (Beckman Coulter). The experiment was carried out in triplicate and included three technical replicates.

[3] = Cytotoxicity, alamarBlue, 72 h; format: cell-based, murine; conditions: mouse, RAW 264.7 cells; 72 h, alamarBlue; read-out: RAW 264.7 cells CC50
Protocol: as §1, §2, §3

[4] = test system: L. donovani-iRFP intramacrophage amastigotes; test: Ex vivo antileishmanial effect on intramacrophage amastigotes (infected murine splenocytes, iRFP fluorescence, 72 h); format: cell-based; conditions: Leishmania donovani, Splenocyte
Protocol: (§4) For efficacy studies, L. donovani-iRFP, a genetically modified strain of L. donovani LV9 constitutively expressing the gene encoding the infrared fluorescent protein (iRFP) ([Melcón-Fernández et al., 2023]), was used. This strain was grown as promastigotes in Schneider's insect medium (Sigma-Aldrich, Merck, Darmstadt, Germany) supplemented with 20 % (v/v) foetal bovine serum (FBS) (Gibco, ThermoFisher Scientific, Waltham, MA, USA) and […] antibiotic cocktail (100 U/mL penicillin and 100 μg/mL streptomycin) (Hyclone, ThermoFisher Scientific, Waltham, MA, USA) at 26 °C until mice were infected ([Carballeira et al., 2016]). Axenic and intramacrophage amastigotes were isolated from six-to eight-week-old female Balb/c mice (see below) that had been infected intraperitoneally with 1.5 × 10^9 metacyclic L. donovani-iRFP promastigotes. To obtain axenic amastigotes, bone marrow was extracted from the femur and tibia of 8- to 10-week-old infected mice and passed through a 100 μm cell strainer. After centrifugation at 3500 rcf for 10 min at room temperature, cell suspensions were resuspended in medium containing 15 mM KCl; 136 mM KH2PO4; 10 mM K2HPO4.3H2O; 0.5 mM MgSO4.7H2O; 24 mM NaHCO3; 22 mM glucose; 1 mM glutamine, 1 × RPMI 1640 vitamin mix (Sigma-Aldrich, Merck, Darmstadt, Germany), 10 mM folic acid, 100 mM adenosine, 1 × RPMI amino acid mix (Sigma-Aldrich, Merck, Darmstadt, Germany), 5 mg/mL hemin, 25 mM 2-morpholinoethanesulfonic acid (MES) pH 5.6, supplemented with 10 % FBS (Gibco, ThermoFisher Scientific, Waltham, MA, USA) and antibiotic cocktail, and incubated at 37 °C and 5 % CO2. To obtain intramacrophage amastigotes, spleens from infected Balb/c mice were cut into pieces, ground with 2 mg/mL collagenase D (Merck, Darmstadt, Germany) and passed through a 100 μm cell strainer. The splenocyte-enriched cell suspension containing intramacrophage amastigotes was resuspended in RPMI medium (Gibco, Fisher Scientific International Inc., Pittsburgh, PA, USA) supplemented with 20 % FBS, 1 mM sodium pyruvate, 24 mM NaHCO3, 2 mM L-glutamine, 1 × RPMI vitamins, 25 mM HEPES pH 7.2 and antibiotic cocktail ([Ashok et al., 2016]).
(§5) The antileishmanial effect of the nitrofurans selected in this study was tested both in vitro on axenic L. donovani-iRFP amastigotes and ex vivo on intramacrophage amastigotes according to previously published methods ([Melcón-Fernández et al., 2023], [2024]; [Andrés-Rodríguez et al., 2024]). Assays were performed in a final volume of […] containing 20,000 axenic amastigotes or a number of L. donovani-iRFP-infected murine splenocytes representing 150,000 relative fluorescence units (RFU), in each well of a black 384-well microtiter plate with optical bottom. In addition, 40 μL of one-half serial dilutions of each compound in amastigotes culture medium (for axenic amastigotes) or in supplemented RPMI medium (for intramacrophage amastigotes) were added to each well. Positive (amphotericin B at a final concentration of 18 μM) and negative (0.1 % v/v DMSO) controls were included on each plate. The plates were incubated at 37 °C and 5 % CO2 for a maximum of 72 h. Fluorescence emitted by viable L. donovani-iRFP was measured on an Odyssey infrared imaging system (Li-Cor, NE, USA).
as §3

L. donovani TryR = target: T1, L. donovani TryR (Leishmania donovani, UniProt P39050); test: biochemical; conditions: for Type of inhibition: Lineweaver-Burk double reciprocal plot, varying T[S]2
T1 construct: endogenous in cells; host or cells: L. donovani-iRFP (LV9) axenic amastigotes, crude cell extract
Protocol: The activity of L. donovani TryR was measured in the presence of different concentrations of nitrofurans according to the protocol previously described ([Melcón-Fernández et al., 2023]). Briefly, 1 × 10^10 L. donovani-iRFP axenic amastigotes were washed twice in PBS and lysed with a solution containing 1 mM EDTA, 40 mM HEPES, 50 mM Tris HCl pH 7.5, 2 % (v/v) Triton X-100 and Pierce™ Protease Inhibitors Mini Tablets (ThermoFisher Scientific, Waltham, MA, USA). Cell extracts were prepared by mechanical disruption of the cells with 0.5 mm diameter glass beads (Merck, Darmstadt, Germany) and the supernatant obtained by centrifugation at 10,000 rcf for 5 min at 4 °C was used to measure TryR activity in 96-well plates. […] Cell extracts diluted in Tris HCl pH 7.5 (0.43 μg of total protein in 50 μL) were added to launch the reaction. The negative control consisted of 2.5 % DMSO, whereas the blank reaction included the TryR assay solution without T [S]2. […] To determine steady-state conditions, enzymatic activity was measured at 412 nm (ε = 14,150 M^−1 cm^−1) for a period of up to 120 min (with 5 min intervals) at 26 °C in a Varioskan Lux spectrophotometer (ThermoFisher Scientific, Waltham, MA, USA). The experiment was carried out in triplicate and included three technical replicates.

[5] = test system: L. donovani-iRFP axenic amastigotes; test: Antileishmanial effect on axenic amastigotes (iRFP fluorescence viability, 72 h); format: cell-based; conditions: Leishmania donovani
Protocol: as §4, §5, §3

[6] = Cytotoxicity in bone marrow-differentiated macrophages, alamarBlue, 72 h; format: cell-based; conditions: mouse, 72 h, alamarBlue, uninfected mice, read-out: BMDM CC50
Protocol: as §1, §2, §3

[7] = Cytotoxicity in primary splenocytes, alamarBlue, 72 h; format: cell-based; conditions: mouse, 72 h, alamarBlue, uninfected mice, read-out: Splenocytes CC50
Protocol: as §1, §2, §3

S. typhimurium TA100 = test: Ames mutagenicity test (Ames 384-ISO Well Test); conditions: for Mutagenic effect TA100-S9: with metabolic activation (S9 mix); for Mutagenic effect TA100: without S9 mix
[8] = bone marrow-differentiated macrophages (BMDM)
[9] = primary splenocytes from healthy, non-infected mice
[10] = T[S]2 25-150 μM, inhibitor 6.25-100 μM, NADPH 0.20 mM, read-out: Ki

T1 sequence (P39050 whole entry): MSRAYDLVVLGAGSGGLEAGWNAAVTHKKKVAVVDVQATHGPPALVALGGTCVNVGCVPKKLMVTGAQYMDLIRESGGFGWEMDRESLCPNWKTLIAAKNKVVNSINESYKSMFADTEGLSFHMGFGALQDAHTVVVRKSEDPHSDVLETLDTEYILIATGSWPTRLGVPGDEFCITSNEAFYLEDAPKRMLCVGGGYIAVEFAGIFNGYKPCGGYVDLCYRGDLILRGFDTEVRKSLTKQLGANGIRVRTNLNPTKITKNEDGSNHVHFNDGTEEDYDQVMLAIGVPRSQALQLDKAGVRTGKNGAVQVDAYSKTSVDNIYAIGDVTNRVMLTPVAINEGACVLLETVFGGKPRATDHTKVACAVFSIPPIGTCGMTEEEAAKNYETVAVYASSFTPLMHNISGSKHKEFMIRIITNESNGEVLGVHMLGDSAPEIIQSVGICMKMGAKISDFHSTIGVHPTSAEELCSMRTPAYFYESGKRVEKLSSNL

Row | SMILES | CC50 at 72 h [1] | Negative ROS (unstressed population) [2] | Positive ROS (stressed population) [2] | CC50 at 72 h [3] | EC50 [4] | Ki (L. donovani TryR) | Type of inhibition (L. donovani TryR) | EC50 [5] | CC50 at 72 h [6, 8] | CC50 at 72 h [7, 9] | Ki (L. donovani TryR; [10]) | further results
1 | CSCC1CN(/N=C/c2ccc([N+](=O)[O-])o2)C(=O)O1 (stereo not shown) [Nifuratel] |  |  |  |  |  |  |  |  |  |  |  | outcome in cutaneous leishmaniasis model (L. major): complete remission; reduction of parasite load (Leishmania): > 70%
2 | CC1CS(=O)(=O)CCN1/N=C/c1ccc([N+](=O)[O-])o1 (stereo not shown) [Nifurtimox] | 84.9 ± 12.4 µM | 31.9% | 68.1% | 50.5 ± 2.25 µM | 1 ± 0.07 µM | 33.5 ± 6.93 µM | Uncompetitive | 3.96 ± 0.37 µM |  |  |  | CC50 at 72 h [6]: 60.2 ± 4.79 µM; CC50 at 72 h [7]: 37.8 ± 6.12 µM
3 | O=C1CN(/N=C/c2ccc([N+](=O)[O-])o2)C(=O)N1 [Nitrofurantoin] | 32 ± 4.58 µM | 23.9% | 76.1 ± 11.6% | 37.2 ± 7.05 µM | 2.1 ± 0.26 µM | 31.2 ± 4.94 µM | Uncompetitive | 1.46 ± 0.08 µM | 56.3 ± 9.06 µM | 33.2 ± 3.5 µM |  | Positive ROS (stressed population) ([2]; listed as NITROFURANTOIN): 76.1%
4 | NC(=O)N/N=C/c1ccc([N+](=O)[O-])o1 [Nitrofurazone] | 65.5 ± 9.67 µM | 44.1% | 55.9% | 39.6 ± 7.91 µM | 0.49 ± 0.11 µM |  | Uncompetitive | 0.49 ± 0.03 µM | 40.6 ± 1.97 µM | 38.9 ± 6.32 µM | 25.8 ± 4.83 µM | Mutagenic effect TA100-S9 (S. typhimurium TA100; 0.5 μM): + (0.05); Mutagenic effect TA100 (S. typhimurium TA100; 0.5 μM): + (0.001); Mutagenic effect TA100-S9 (S. typhimurium TA100; 5.0 μM): + (0.001); Mutagenic effect TA100 (S. typhimurium TA100; 5.0 μM): + (0.05); Mutagenic effect TA100-S9 (S. typhimurium TA100; 50.0 μM): - ^b; Mutagenic effect TA100 (S. typhimurium TA100; 50.0 μM): - ^b
5 | O=C1NN(c2ccc(F)c(Cl)c2)C(=O)C1=Cc1ccc([N+](=O)[O-])o1 [PYZD-4409, 1-(3-chloro-4-fluorophenyl)-4-[(5-nitro-2-furyl)methylene]-3,5-pyrazolidinedione] | 16.3 ± 0.56 µM | 36.9% | 63.1% | 51.7 ± 8.03 µM | > 100 µM |  | Competitive | 1.27 ± 0.04 µM | 20.8 ± 6.4 µM | 11.7 ± 0.5 µM | 7.63 ± 2.56 µM | 

Reference: paper PMC12344264, “Mechanistic, in-silico and in vitro studies with nitrofurans reveal potent leishmanicidal activity and inhibition of trypanothione reductase” (International Journal for Parasitology: Drugs and Drug …, 2025)
